Data from the supplement of paper PMC7021759.
± gives the standard deviation of the averaged measurements.

System: SK-N-MM (SKNMM-MYCN, doxycycline-inducible MYCN)
Assay: area under dose-response curve (CellTiter-Glo viability normalised to plate controls) (AUC (arbitrary units)); higher = more loss of viability; extreme values may be limits of the assay
Outline: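 For each compound, area under the dose-response curve was calculated from log2 CellTiter-Glo luminescence normalised to the positive and negative controls on each plate. The cells were SK-N-MM with doxycycline-inducible MYCN, plated at 1250 cells/100 μL in 96-well plates and moved to medium with or without doxycycline about 24 h later. Two days after that, 10-point 1:3 dilution series were pin-transferred (890-fold stock dilution), with re-dosing on day 4 and readout 3 or 8 days after drugging.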

[1] = MYCN induction (doxycycline): +doxycycline (MYCN induced), time after drugging: 3 days
[2] = MYCN induction (doxycycline): +doxycycline (MYCN induced), time after drugging: 8 days
[3] = MYCN induction (doxycycline): no doxycycline (MYCN not induced), time after drugging: 3 days
[4] = MYCN induction (doxycycline): no doxycycline (MYCN not induced), time after drugging: 8 days

Row | Structure (SMILES) | area under dose-response curve [1] | area under dose-response curve [2] | area under dose-response curve [3] | area under dose-response curve [4]
1 | OC[C@H]1O[C@@H](n2cnc3c2N=CNC[C@H]3O)C[C@@H]1O [PENTOSTATIN] | 0 | 0 | 0 | –
2 | O=C(NC[C@H](O)CO)c1ccncc1Nc1ccc(I)cc1F [PIMASERTIB] | 42.1 | 125 | 0 | 105
3 | CCc1ccc(CCOc2ccc(CC3SC(=O)NC3=O)cc2)nc1 (configuration not stated) [PIOGLITAZONE] | 0 | 0 | 0 | 0
4 | CCc1nc(N)nc(N)c1-c1ccc(Cl)cc1 [PYRIMETHAMINE] | 13.5 | 65.7 | 5.97 | 22.1
5 | CCN(CC)CCCC(C)Nc1c2ccc(Cl)cc2nc2ccc(OC)cc12 (configuration not stated) [QUINACRINE] | 2.07 | 146 | 0 | 149
6 | Cc1cnc(NC(=O)Nc2cc(Br)c(C)cc2OC[C@@H]2CNCCO2)cn1 [RABUSERTIB] | 89.5 | 171 | 31 | 95.5
7 | Cc1nc(=O)c2cc(CN(C)c3ccc(C(=O)N[C@@H](CCC(=O)O)C(=O)O)s3)ccc2[nH]1 [RALTITREXED] | 22.3 | 166 | 6.42 | 63.1
8 | CNC(=O)c1cc(Oc2ccc(NC(=O)Nc3ccc(Cl)c(C(F)(F)F)c3)c(F)c2)ccn1 [REGORAFENIB] | 30.6 | 47.7 | 18.8 | 61.4
9 | CCOc1cc(C(C)(C)C)ccc1C1=N[C@@](C)(c2ccc(Cl)cc2)[C@@](C)(c2ccc(Cl)cc2)N1C(=O)N1CCN(CCCS(C)(=O)=O)CC1 [RG7112] | 0 | 0 | 0 | 0
10 | CN(C)C(=O)c1cc2cnc(Nc3ccc(N4CCNCC4)cn3)nc2n1C1CCCC1 [RIBOCICLIB] | 7.07e-05 | 12.9 | 0 | 15.9
11 | O=C(CCCCCCNC(=O)c1cnc(N(c2ccccc2)c2ccccc2)nc1)NO [ROCILINOSTAT] | 43.9 | 94.7 | 20.4 | 76.4
12 | C/C=C1\NC(=O)[C@H]2CSSCC/C=C/[C@H](CC(=O)N[C@H](C(C)C)C(=O)N2)OC(=O)[C@H](C(C)C)NC1=O [ROMIDEPSIN] | 231 | 416 | 165 | 398
13 | N#CC[C@H](C1CCCC1)n1cc(-c2ncnc3[nH]ccc23)cn1 [RUXOLITINIB] | 27.6 | 121 | 22.3 | 100
14 | O=C(/C=C\n1cnc(-c2cc(C(F)(F)F)cc(C(F)(F)F)c2)n1)NNc1cnccn1 [SELINEXOR] | 98.9 | 189 | 43.6 | 128
15 | Cn1cnc2c(F)c(Nc3ccc(Br)cc3Cl)c(C(=O)NOCCO)cc21 [SELUMETINIB] | 0 | 0 | 0.45 | 18.9
16 | Cc1cc(Nc2ccc(NC(=O)c3ccc(Nc4ccnc5ccccc45)cc3)cc2)nc(N)n1 [SGI-1027] | 80.5 | 201 | 26.5 | 105
17 | CN1CCC(CNc2ccc3ncc(-c4cccc(OC(F)(F)F)c4)n3n2)CC1 [SGI-1776] | – | 144 | – | 138
18 | CO[C@H]1C[C@@H]2CC[C@@H](C)[C@@](O)(O2)C(=O)C(=O)N2CCCC[C@H]2C(=O)O[C@H]([C@H](C)C[C@@H]2CC[C@@H](O)[C@H](OC)C2)CC(=O)[C@H](C)/C=C(\C)[C@@H](O)[C@@H](OC)C(=O)[C@H](C)C[C@H](C)/C=C/C=C/C=C/1C [SIROLIMUS] | 18.2 | 7.23 | 41.5 | 24.7
19 | CCc1c2c(nc3ccc(O)cc13)-c1cc3c(c(=O)n1C2)COC(=O)[C@]3(O)CC [SN-38] | 152 ± 8.4 | 295 ± 33 | 67.4 ± 16 | 181 ± 37
20 | CNC(=O)c1cc(Oc2ccc(NC(=O)Nc3ccc(Cl)c(C(F)(F)F)c3)cc2)ccn1 [SORAFENIB] | 0 | 0 | 0 | 0

Row | Structure (SMILES) | area under dose-response curve [1] | area under dose-response curve [2] | area under dose-response curve [3] | area under dose-response curve [4]
21 | O=C(Nc1ccccc1-c1cn2c(CN3CCNCC3)csc2n1)c1cnc2ccccc2n1 [SRT1720] | 187 | 220 | 0.00298 | 213
22 | CC1=C(CC(=O)O)c2cc(F)ccc2/C1=C\c1ccc([S+](C)[O-])cc1 (configuration not stated) [SULINDAC] | – | 0 | 0 | 0
23 | CCN(CC)CCNC(=O)c1c(C)[nH]c(/C=C2\C(=O)Nc3ccc(F)cc32)c1C [SUNITINIB] | 3.49 | 132 | 3.64 | 140
24 | CN(C)CCCNc1c2ccccc2nc2c1[nH]c1ccccc12 [SYUIQ-5] | 219 | 262 | 196 | 225
25 | Cn1ncnc1[C@H]1c2n[nH]c(=O)c3cc(F)cc(c23)N[C@@H]1c1ccc(F)cc1 [TALAZOPARIB] | 48.2 ± 12 | 183 ± 40 | 29.3 ± 20 | 78.2 ± 25
26 | CC1(C)CCC(C)(C)c2cc(NC(=O)c3ccc(C(=O)O)cc3)ccc21 [TAMIBAROTENE] | 1.1 | 3.09 | 0 | 0
27 | CC/C(=C(\c1ccccc1)c1ccc(OCCN(C)C)cc1)c1ccccc1 [TAMOXIFEN] | 0 | 0 | 0 | 0
28 | Cc1nc(-c2cn3c(n2)-c2ccc(-c4cnn(C(C)(C)C(N)=O)c4)cc2OCC3)n(C(C)C)n1 [TASELISIB] | 23.1 | 34.9 | 34.6 | 39
29 | CCOC(=O)c1ccc(C#Cc2ccc3c(c2)C(C)(C)CCS3)nc1 [TAZAROTENE] | 3.59 | 9.49 | – | 0.284
30 | Cn1nnc2c(C(N)=O)ncn2c1=O [TEMOZOLOMIDE] | 0 | 0 | 0 | –
31 | CO[C@H]1C[C@@H]2CC[C@@H](C)[C@@](O)(O2)C(=O)C(=O)N2CCCC[C@H]2C(=O)O[C@H]([C@H](C)C[C@@H]2CC[C@@H](OC(=O)C(C)(CO)CO)[C@H](OC)C2)CC(=O)[C@H](C)/C=C(\C)[C@@H](O)[C@@H](OC)C(=O)[C@H](C)C[C@H](C)/C=C/C=C/C=C/1C [TEMSIROLIMUS] | 8.87 ± 0.32 | – | – | 43.4
32 | Nc1nc2[nH]cnc2c(=S)[nH]1 [THIOGUANINE] | 26.6 | 54.3 | 10.2 | 21.2
33 | CN(C)C/C=C/C(=O)Nc1ccc(C(=O)Nc2cccc(Nc3ncc(Cl)c(-c4c[nH]c5ccccc45)n3)c2)cc1 [THZ1] | 102 | 240 | 51.7 | 190
34 | O=C1NC(=O)[C@@H](c2cn3c4c(cccc24)CCC3)[C@@H]1c1c[nH]c2ccccc12 [TIVANTINIB] | 102 | 135 | 53.3 | 77.2
35 | COc1cc2nccc(Oc3ccc(NC(=O)Nc4cc(C)on4)c(Cl)c3)c2cc1OC [TIVOZANIB] | 0 | 0 | 0 | 0
36 | CC[C@@]1(O)C(=O)OCc2c1cc1n(c2=O)Cc2cc3c(CN(C)C)c(O)ccc3nc2-1 [TOPOTECAN] | 139 | 216 | 68.5 | 105
37 | CC(=O)Nc1cccc(-n2c(=O)n(C3CC3)c(=O)c3c(Nc4ccc(I)cc4F)n(C)c(=O)c(C)c32)c1 [TRAMETINIB] | 54.2 | 206 | 42.4 | 152
38 | CC1=C(/C=C/C(C)=C/C=C/C(C)=C/C(=O)O)C(C)(C)CCC1 [TRETINON] | – | 0.434 | 1.4 | 0
39 | CC(/C=C/C(=O)NO)=C\[C@@H](C)C(=O)c1ccc(N(C)C)cc1 [TRICHOSTATIN A] | 159 | 310 | 124 | 282
